The compounds below were run against T1, human CB2R (Homo sapiens, UniProt P34972) (assay: CB2R mediated modulation of cAMP synthesis). Details: CHO cells expressing human CB2R; concentration at which 50% of the forskolin-stimulated cAMP synthesis was inhibited; 100% defined by 1 uM CP55940; read-out: CB2 EC50.
T1 construct: host or cells: CHO cells
Format: cell-based
Experimental: B. CB2R Mediated Modulation of Camp Synthesis:
Compounds of the invention were evaluated for their CB2 agonist or inverse agonistic activity in accordance with the following experimental method.
CHO cells expressing human CB2R (Euroscreen) were plated at a density of 5000 cells per well in 384 well plates and incubated overnight at 37° C. After removing the media, the cells were treated with test compounds diluted in stimulation buffer containing 1 mM IBMX, 0.25% BSA and 10 uM Forskolin. The assay was incubated for 30 minutes at 37° C. Cells were lysed and the cAMP concentration was measured using DiscoverX-XS cAMP kit, following the manufacturer's protocol. In this setting, agonists will decrease forskolin induced production of cAMP while inverse agonists will further increase forskolin induced production of cAMP. EC50 of agonists were calculated as follows. The maximal amount of cAMP produced by forskolin compared to the level of cAMP inhibited by 1 uM CP55940 is defined as 100%. The EC50 value of each test compound was determined as the concentration at which 50% of the forskolin-stimulated cAMP synthesis was inhibited. Data was analyzed using a four-parameter logistic model. (Model 205 of XLfit 4.0).

T1 sequence (P34972 whole entry): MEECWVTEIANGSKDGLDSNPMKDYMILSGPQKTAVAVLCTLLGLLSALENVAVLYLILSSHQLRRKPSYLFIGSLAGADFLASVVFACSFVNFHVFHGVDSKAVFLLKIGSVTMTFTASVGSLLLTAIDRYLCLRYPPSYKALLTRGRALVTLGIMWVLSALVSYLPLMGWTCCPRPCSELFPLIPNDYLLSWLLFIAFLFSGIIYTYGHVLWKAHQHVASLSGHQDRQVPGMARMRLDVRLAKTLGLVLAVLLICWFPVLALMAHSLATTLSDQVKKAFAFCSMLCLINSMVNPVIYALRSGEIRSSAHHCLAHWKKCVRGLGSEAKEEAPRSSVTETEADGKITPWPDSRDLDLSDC

SMILES	EC50 [µM]
Cn1nc(C(C)(C)C)cc1-c1coc(C(C)(C)S(=O)(=O)c2ccc(Cl)cc2)n1 [Example 1, 4-(5-tert-butyl-2-methyl-2H-pyrazol-3-yl)-2-[1-(4-chloro-benzenesulfonyl)-1-methyl-ethyl]-oxazole]	0.00092
Cn1nc(C(C)(C)C)cc1-c1coc(C(C)(C)S(=O)(=O)c2ccc(F)cc2)n1 [Example 2, 4-(5-tert-butyl-2-methyl-2H-pyrazol-3-yl)-2-[1-(4-fluoro-benzenesulfonyl)-1-methyl-ethyl]-oxazole]	0.00035
Cn1nc(C(C)(C)C)cc1-c1coc(C(C)(C)S(=O)(=O)c2ccc(Cl)cc2F)n1 [Example 3, 4-(5-tert-butyl-2-methyl-2H-pyrazol-3-yl)-2-[1-(4-chloro-2-fluoro-benzenesulfonyl)-1-methyl-ethyl]-oxazole]	0.0039
Cc1ccc(S(=O)(=O)C(C)(C)c2nc(-c3cc(C(C)(C)C)nn3C)co2)cc1 [Example 4, 4-(5-tert-butyl-2-methyl-2H-pyrazol-3-yl)-2-[1-methyl-1-(toluene-4-sulfonyl)-ethyl]-oxazole]	0.012
Cn1nc(C(C)(C)C)cc1-c1coc(C(C)(C)S(=O)(=O)CC2CCOCC2)n1 [Example 5, 4-(5-tert-butyl-2-methyl-2H-pyrazol-3-yl)-2-[1-methyl-1-(tetrahydro-pyran-4-ylmethanesulfonyl)-ethyl]-oxazole]	0.145
Cn1nc(C(C)(C)C)cc1-c1coc(C(C)(C)S(=O)(=O)C2CCCCC2)n1 [Example 6, 4-(5-tert-butyl-2-methyl-2H-pyrazol-3-yl)-2-(1-cyclohexanesulfonyl-1-methyl-ethyl)-oxazole]	0.371
CC(C)(C)c1cc(-c2coc(C(C)(C)S(=O)(=O)c3ccc(Cl)cc3)n2)no1 [Example 7, 5-tert-butyl-3-{2-[1-(4-chloro-benzenesulfonyl)-1-methyl-ethyl]-oxazol-4-yl}-isoxazole]	0.0009
Cn1nc(C(C)(C)C)cc1-c1cnc(C(C)(C)S(=O)(=O)c2ccc(Cl)cc2)o1 [Example 8, 5-(5-tert-butyl-2-methyl-2H-pyrazol-3-yl)-2-[1-(4-chloro-benzenesulfonyl)-1-methyl-ethyl]-oxazole]	0.022
Cn1nc(C(C)(C)C)cc1-c1cnc(C(C)(C)S(=O)(=O)c2ccc(F)cc2)o1 [Example 9, 5-(5-tert-butyl-2-methyl-2H-pyrazol-3-yl)-2-[1-(4-fluoro-benzenesulfonyl)-1-methyl-ethyl]-oxazole]	0.0058
Cn1nc(C(C)(C)C)cc1-c1nnc(C(C)(C)S(=O)(=O)c2ccc(Cl)cc2)[nH]1 [Example 12, 3-(5-tert-butyl-2-methyl-2H-pyrazol-3-yl)-5-[1-(4-chloro-benzenesulfonyl)-1-methyl-ethyl]-4H-[1,2,4]triazole]	0.012
CC(C)(C)c1cc(-c2nnc(C(C)(C)S(=O)(=O)CC3CCOCC3)[nH]2)on1 [Example 14, 3-(3-tert-butyl-isoxazol-5-yl)-5-[1-methyl-1-(tetrahydro-pyran-4-ylmethanesulfonyl)-ethyl]-4H-[1,2,4]triazole]	0.159
CC(C)(c1nc(C2CCCCC2)no1)S(=O)(=O)c1ccc(C(F)(F)F)cc1 [Example 16, 3-cyclohexyl-5-[1-methyl-1-(4-trifluoromethyl-benzenesulfonyl)-ethyl]-[1,2,4]oxadiazole]	0.012
Cn1nc(C(C)(C)C)cc1-c1nc(C(C)(C)S(=O)(=O)c2ccc(Cl)cc2)no1 [Example 18, 5-(5-tert-butyl-2-methyl-2H-pyrazol-3-yl)-3-[1-(4-chloro-benzenesulfonyl)-1-methyl-ethyl]-[1,2,4]oxadiazole]	0.0027
Cn1nc(C(C)(C)C)cc1-c1nc(C(C)(C)S(=O)(=O)CC2CCOCC2)no1 [Example 19, 5-(5-tert-butyl-2-methyl-2H-pyrazol-3-yl)-3-[1-methyl-1-(tetrahydro-pyran-4-ylmethanesulfonyl)-ethyl]-[1,2,4]oxadiazole]	0.0092
